In paper PMC10647589, “Heterogeneous Cellular Response of Primary and Metastatic Human Gastric Adenocarcinoma Cell Lines to Magnoflorine and Its Additive Interaction with Docetaxel” (International Journal of Molecular Sciences, 2023):

What was measured:
Assay type in all cases: cell-based
[1] = system: AGS human GC cells; test: Cell cycle analysis (PI, flow cytometry); details: 72 h
Method: (§1) Human GC cells ACC-201, AGS, MKN-74 and NCI-N87 were seeded in 6-well plates and allowed to adhere overnight. On the following day, the growth medium was removed, and the cells were treated with indicated concentrations of MGN (10–40 µg/mL) for 72 h. After that, the cells were washed with phosphate-buffered saline (PBS) and fixed in 70% ethanol at 4 °C overnight. Then, the cells were washed with PBS and stained with propidium iodide, utilizing PI/RNase Staining Buffer (BD Biosciences, Heidelberg, Germany) for 15 min in the dark. Cell distribution in different stages of the cell cycle was performed through the use of the FACS CaliburTM flow cytometer (BD Biosciences, Mountain View, CA, USA).

[2] = system: NCI-N87 human GC cells; test: Cell cycle analysis (PI, flow cytometry); details: 72 h
Method: as §1

[3] = system: MKN-74 human GC cells; test: Cell cycle analysis (PI, flow cytometry); details: 72 h
Method: as §1

[4] = system: AGS human GC cells; test: MTT assay (viability; isobolographic analysis); details: 72 h incubation, mean ± SEM
Method: (§2) The human GC cells ACC-201, AGS, MKN-74 and NCI-N87 were placed in 96-well plates and allowed to adhere overnight. On the following day, the growth medium was removed, and the cells were treated with a series of tested MGN and DCT dilutions (2.0–75 and 0.0004–0.0404 µg/mL, respectively) for 72 h at 37 °C. […] Subsequently, a solution of MTT (5 mg/mL) was added to each well, and the cells were further incubated for 3 h at 37 °C. Tetrazolium salt was reduced to violet formazan derivatives via the succinate dehydrogenase of metabolically active cells. Insoluble formazan compounds formed inside the cells were extracted with a sodium dodecyl sulfate buffer (10% SDS in 0.01 N HCl) overnight to achieve a quantitative assessment of the amount produced. The absorbance of the samples was measured at 570 nm using Infinite M200 Pro microplate reader (Tecan, Männedorf, Switzerland). Cell viability was presented as a percentage relative to the untreated control cells.
(§3) Interactions between MGN and DCT analyzed after 72 h in four different GC cell lines (ACC-201, AGS, MKN-74 and NCI-N87) were characterized by means of an isobolographic analysis in the MTT assay. The percentage inhibition of cell viability accompanied by the specific concentrations of the tested substances (MGN and DCT) were transferred to the MS Excel spreadsheet, and the data were computed using the log–probit method. Next, the concentration–response effect graphs for the tested drugs (MGN and DCT) were drawn, and the IC50 values for every tested drug were calculated. The cooperative effect of two concentration–response lines was tested for the MGN and DCT combination, as previously described. The calculations of IC50 values (±SEM) were computed with formulas originally derived from the log–probit method and adapted to the in vitro conditions, as described earlier. The concentration–response lines for MGN and DCT were not parallel, and thus, the isobolographic additivity was illustrated graphically as an area bounded by two (upper and lower) lines of additivity. From the experimentally denoted IC50 values for MGN and DCT in the MTT assay, median additive inhibitory concentrations (IC50add) for the mixture (at the fixed ratio of 1:1 of MGN and DCT) in various cell lines (ACC-201, AGS, MKN-74 and NCI-N87) were calculated, as described previously. More information on isobolographic analysis can be found in the literature.

[5] = system: NCI-N87 human GC cells; test: MTT assay (viability; isobolographic analysis); details: NCI-N87, 72 h incubation, mean ± SEM
Method: as §2, §3

[6] = system: ACC-201 human GC cells; test: MTT assay (viability; isobolographic analysis); details: ACC-201, 72 h incubation, mean ± SEM
Method: as §2, §3

[7] = system: MKN-74 human GC cells; test: MTT assay (viability; isobolographic analysis); details: MKN-74, 72 h incubation, mean ± SEM
Method: as §2, §3

Structure (SMILES): COc1ccc2c(c1O)-c1c(O)c(OC)cc3c1[C@H](C2)[N+](C)(C)CC3 [MGN, magnoflorine]
- cells in G1 phase ([1]; MGN 10 µg/mL): 58.09% ± 8.195
- cells in G2 phase ([1]; MGN 10 µg/mL): 23.35% ± 12.110
- cells in S phase ([1]; MGN 10 µg/mL): 17.62% ± 3.599
- cells in subG1 phase ([1]; MGN 10 µg/mL): 1.19% ± 2.437
- cells in G1 phase ([1]; MGN 20 µg/mL): 53.06% ± 12.980
- cells in G2 phase ([1]; MGN 20 µg/mL): 24.06% ± 16.000
- cells in S phase ([1]; MGN 20 µg/mL): 21.07% ± 2.593
- cells in subG1 phase ([1]; MGN 20 µg/mL): 2.17% ± 2.519
- cells in G1 phase ([1]; MGN 30 µg/mL): 43.08% ± 14.330
- cells in G2 phase ([1]; MGN 30 µg/mL): 31.77% ± 17.630
- cells in S phase ([1]; MGN 30 µg/mL): 21.55% ± 2.265
- cells in subG1 phase ([1]; MGN 30 µg/mL): 2.17% ± 3.000
- cells in G1 phase ([1]; MGN 40 µg/mL): 38.15% ± 13.350
- cells in G2 phase ([1]; MGN 40 µg/mL): 39.34% ± 15.720
- cells in S phase ([1]; MGN 40 µg/mL): 19.89% ± 2.653
- cells in subG1 phase ([1]; MGN 40 µg/mL): 2.98% ± 2.448
- effect on cell cycle progression ([1]; MGN 10–40 µg/mL): induced the G2/M phase arrest
- cells in G1 phase ([2]; NCI-N87, MGN 10 µg/mL): 69.39% ± 3.658
- cells in G2 phase ([2]; NCI-N87, MGN 10 µg/mL): 16.52% ± 2.770
- cells in S phase ([2]; NCI-N87, MGN 10 µg/mL): 11.81% ± 3.808
- cells in subG1 phase ([2]; NCI-N87, MGN 10 µg/mL): 2.41% ± 2.189
- cells in G1 phase ([2]; NCI-N87, MGN 20 µg/mL): 70.17% ± 2.905
- cells in G2 phase ([2]; NCI-N87, MGN 20 µg/mL): 15.56% ± 2.419
- cells in S phase ([2]; NCI-N87, MGN 20 µg/mL): 10.44% ± 6.685
- cells in subG1 phase ([2]; NCI-N87, MGN 20 µg/mL): 3.93% ± 2.591
- cells in G1 phase ([2]; NCI-N87, MGN 30 µg/mL): 67.45% ± 3.535
- cells in G2 phase ([2]; NCI-N87, MGN 30 µg/mL): 16.21% ± 1.874
- cells in S phase ([2]; NCI-N87, MGN 30 µg/mL): 10.12% ± 7.739
- cells in subG1 phase ([2]; NCI-N87, MGN 30 µg/mL): 6.33% ± 2.772
- cells in G1 phase ([2]; NCI-N87, MGN 40 µg/mL): 64.37% ± 3.651
- cells in G2 phase ([2]; NCI-N87, MGN 40 µg/mL): 17.06% ± 2.426
- cells in S phase ([2]; NCI-N87, MGN 40 µg/mL): 9.24% ± 5.603
- cells in subG1 phase ([2]; NCI-N87, MGN 40 µg/mL): 9.47% ± 1.163
- effect on cell cycle progression ([2]; NCI-N87, MGN 10–40 µg/mL): Minor changes in cell cycle progression
- cells in G1 phase ([3]; MKN-74, MGN 10 µg/mL): 69.07% ± 1.886
- cells in G2 phase ([3]; MKN-74, MGN 10 µg/mL): 16.23% ± 1.928
- cells in S phase ([3]; MKN-74, MGN 10 µg/mL): 13.36% ± 0.622
- cells in subG1 phase ([3]; MKN-74, MGN 10 µg/mL): 1.60% ± 2.688
- cells in G1 phase ([3]; MKN-74, MGN 20 µg/mL): 73.81% ± 4.227
- cells in G2 phase ([3]; MKN-74, MGN 20 µg/mL): 14.14% ± 2.076
- cells in S phase ([3]; MKN-74, MGN 20 µg/mL): 9.97% ± 1.867
- cells in subG1 phase ([3]; MKN-74, MGN 20 µg/mL): 2.28% ± 2.818
- cells in G1 phase ([3]; MKN-74, MGN 30 µg/mL): 65.90% ± 3.533
- cells in G2 phase ([3]; MKN-74, MGN 30 µg/mL): 22.92% ± 2.455
- cells in S phase ([3]; MKN-74, MGN 30 µg/mL): 7.72% ± 1.822
- cells in subG1 phase ([3]; MKN-74, MGN 30 µg/mL): 3.59% ± 2.787
- cells in G1 phase ([3]; MKN-74, MGN 40 µg/mL): 50.20% ± 5.303
- cells in G2 phase ([3]; MKN-74, MGN 40 µg/mL): 35.94% ± 6.691
- cells in S phase ([3]; MKN-74, MGN 40 µg/mL): 8.25% ± 2.280
- cells in subG1 phase ([3]; MKN-74, MGN 40 µg/mL): 5.60% ± 1.002
- effect on cell cycle progression ([3]; MKN-74, MGN 10 and 20 µg/mL vs. 40 µg/mL): induced G1/S or G2/M phase cell cycle arrest
- IC50 [4]: 17.2 ± 3.59 µg/mL
- IC50 [5]: 33.3 ± 5 µg/mL
- IC50 [6]: 15.8 ± 2.79 µg/mL
- IC50 [7]: 34.8 ± 6.04 µg/mL
